Data on 8 molecules can be found in patent US4971964A, “Pyridine derivatives” (priority 1988, dated 1990).

Series [1] has as its system dd male mice. The series can be described thus: Acute Toxicity Test (minimum lethal dose, MLD). Type of series: in vivo. As to the method: A test compound was given to dd male mice weighing 20±1 g (3 mice per group) per os. (p.o.; 300 mg/kg) or intraperitoneally (i.p.; 100 mg/kg). The mortality after 7 days from the administration was considered to determine the minimum lethal dose (MLD).

Series [2] relates to silver nitrate-induced arteriothromboembolia in male Wistar-Shizuoka rats. Nature of the series: Test on Inhibition of Silver Nitrate-Induced Arteriothromboembolia in Rats. The settings on record: for Number of Obstruction Case/Number of Experiments: control 23/26; for Percent Obstruction: control 88%; for percent obstruction vs control (in words): I-12Z 0.3, 1.0, or 3.0 mg/kg, I-13E 3 mg/kg. It is filed as in vivo. The source says: Male Wistar -Shizuoka rats weighing 270±20 g were anesthetized with urethane (1.5 g/kg) intraperitoneally. Each animal was fixed on its back, and a venous cannula and an arterial cannula were inserted into the left carotid vein and the left femoral artery, respectively. An abdominal incision was made, the intestinal tract was put aside so that the descending abdominal aorta could be seen, the surrounding connective tissues were removed, the descending aorta was detached to a length of about 1 cm, and the detached descending aorta was put on a globe of 8 cm in diameter. A solvent (0.1 ml; physiological saline containing 0.05N sodium hydroxide) or a drug solution (0.1 ml) in the solvent was injected via the cannulated carotid vein per 100 g of body weight. Three minutes later, a 30% silver nitrate aqueous solution was dropped on the detached descending abdominal aorta. Five minutes later, the globe was removed, and the affected site was washed three times with physiological saline to stop the reaction. After the elapse of 30 minutes from the stopping of the reaction, the blood pressure of the femoral artery was measured, and the pressure fall was taken as an indication of obstruction of the descending arterial. Significance of the difference in degree of the obstruction between the control group (only the solvent was administered) and the test group was assayed by X^2 -assay.

Series [3] deals with collagen-induced ischemic ECG alterations in spontaneous hypertensive rats (SHR). Nature of the series: Test On Inhibition of Collagen-Induced Ischemic Alterations of Electrocardiogram. Type of series: in vivo. The settings on record: 1 mg/kg, iv; for Change of ECG (score 0-3): mean ± standard error, N = 5 to 6. As to the method: Spontaneous hypertensive rats (SHR) (male; 25-30-week-old; available from Hoshino Jikken Dobutsu) were intraperitoneally anesthesized with sodium pentobarbital (60 mg/kg). Each animal was fixed on its back, a venous cannula was inserted into the left jugular vein, and electrocardiograms (ECG) in extremity leads II were taken. A solvent alone (physiological saline containing 0.05N sodium hydroxide) or the test compound (I-12Z or I-13E) dissolved in the same solvent was intravenously administered in an amount of 0.1 ml per 100 g of body weight. Three minutes later, 4.5 mg/kg of collagen III originating from the bovine skin was intravenously injected, and the changes of the ECG were observed over 10 minutes. The ischemic ECG alterations after the intravenous injection of collagen were scored based on the following system according to the method of Matsumura et al., Folia Pharmacol., Japon, and the significance of difference in scores of the control group receiving the solvent alone and the test group was examined by the U-test of Mann-Whitney.
0 . . . Changes of 0.05 mV or less in the S-T segment or the T wave
1 . . . Changes between 0.05 and 0.1 mV in the S-T segment or the T wave
2 . . . Changes of 0.1 mV or more in the S-T segment or the T wave
3 . . . Arrythmia or cardiac arrest

The target in series [4] is T1, thromboxane synthase (TXA2 synthase), bovine platelet microsome (Bos taurus, UniProt Q2KIG5).
T1 construct: bovine platelet microsome; from tissue; host or cells: bovine platelets (microsome)
T1 sequence (Q2KIG5 1-533): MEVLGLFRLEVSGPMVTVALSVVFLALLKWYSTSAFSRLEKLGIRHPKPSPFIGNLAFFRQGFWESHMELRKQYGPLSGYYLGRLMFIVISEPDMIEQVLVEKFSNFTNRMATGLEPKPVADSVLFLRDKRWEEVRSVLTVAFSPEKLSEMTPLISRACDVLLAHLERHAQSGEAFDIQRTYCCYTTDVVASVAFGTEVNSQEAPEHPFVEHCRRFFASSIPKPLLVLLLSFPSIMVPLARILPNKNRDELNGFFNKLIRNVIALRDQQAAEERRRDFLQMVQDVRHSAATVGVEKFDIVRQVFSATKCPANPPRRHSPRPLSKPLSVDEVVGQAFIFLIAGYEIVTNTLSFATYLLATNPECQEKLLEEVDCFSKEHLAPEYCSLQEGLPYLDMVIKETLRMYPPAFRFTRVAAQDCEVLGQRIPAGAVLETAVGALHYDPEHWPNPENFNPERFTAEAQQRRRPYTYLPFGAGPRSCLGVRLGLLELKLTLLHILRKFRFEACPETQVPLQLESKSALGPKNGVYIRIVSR
The series can be described thus: Test on Inhibition of TXA2 Biosynthesis (bovine platelet microsome, TXB2 by radioimmunoassay). Type of series: biochemical. The settings on record: for IC50: bovine platelet microsome, pH 7.4, prostaglandin H2 substrate. As to the method:
A mixture of 70 μl of bovine platelet microsome [protein: 40 μg; 100 mM tris-HCl buffer (pH=7.4)] and 10 μl of a test compound solution (100 mM tris-HCl buffer containing 10% methanol) was allowed to stand at 0° C. for 5 minutes, and 20 μl of a prostaglandin H2 solution (100 mM tris-HCl buffer supplemented with acetone containing 0.1 nmol of prostaglandin H2) was added thereto as a substrate.
The amount of thromboxane B2 (TXB2) (stable degradation product of TXA2) produced in the system was determined by radioimmunoassay [F. A. Fitzpatrick et al., Methods in Enzymology, Vol. 86, p.286 (1982)].
Inhibition of TXB2 synthesis was evaluated by IC50 (50% inhibitory concentration) or percent inhibition as calculated from equation described below, and the results obtained are shown in Table 1. [formula]

Setting [5] is: dd male mice, mortality after 7 days.
Setting [6] is: 0.5 min after collagen injection.
[7] abbreviates: 10 min after collagen injection.

What is called IC50 is the concentration at which inhibition is half-maximal. A higher IC50 goes with weaker potency in that assay. A word on the inhibition: it is the drop in the measured response relative to a control, in per cent.

With `CN1C(=O)c2ccncc2/C(=C\CCCCC(=O)O)c2ccccc21` [Compound I-12Z, (Z)-11-(5-carboxypentylidene)-6-methyl-5,11-dihydropyrido[4,3-c][1]benzazepin-5(6H)-one], in series [1] (setting [5]), the “Acute Toxicity (MLD) ip” value is reported as greater than 100 mg/kg. Also, the “Acute Toxicity (MLD) po” value in series [1] (setting [5]) is listed as greater than 300 mg/kg. Also, the “Number of Obstruction Case/Number of Experiments” value is on record as 4/6 in series [2] (0.1 mg/kg i.v.), 1/5 in series [2] (0.3 mg/kg i.v.), 0/5 in series [2] (1.0 mg/kg i.v.) and 1/5 in series [2] (3.0 mg/kg i.v.). Moreover, the “Percent Obstruction” value in series [2] (0.1 mg/kg i.v.) is 67%; in series [2] (0.3 mg/kg i.v.), 20%; in series [2] (1.0 mg/kg i.v.), 0%; in series [2] (3.0 mg/kg i.v.), 20%. Further, in series [2] (i.v.), the “percent obstruction vs control (in words)” value is given as “significantly lower than that of the control group”. Moreover, in series [2] (i.v.), the “inhibition of obstruction vs comparative drugs CV-4151 and OKY-1581 (in words)” value was “inhibition of obstruction at lower doses as compared with the comparative drugs, CV-4151 and OKY-1581”. Also, the “ECG changes vs control (in words)” value in series [3] is “significantly smaller than those in the control groups”. In addition, the “Change of ECG (score 0-3)” value in series [3] (setting [6]) is listed as 0.8 ± 0.5; in series [3] (1 min after collagen injection), 0.5 ± 0.2; in series [3] (2 min after collagen injection) it was 1.0 ± 0.4; in series [3] (3 min after collagen injection), 0.8 ± 0.3; in series [3] (4 min after collagen injection), 0.7 ± 0.2; in series [3] (5 min after collagen injection), 0.2 ± 0.2. The “Change of ECG (score 0-3)” value in series [3] (6 min after collagen injection) is 0.3 ± 0.2; in series [3] (7 min after collagen injection) it was 0.5 ± 0.2; in series [3] (8 min after collagen injection), 0.5 ± 0.2; in series [3] (9 min after collagen injection), 0.4 ± 0.2; in series [3] (setting [7]), 0.3 ± 0.2. In series [4], this molecule had an IC50 of 34 nM.
For `COC1=Nc2ccncc2/C(=C/CCCCC(=O)O)c2ccccc21` [Compound I-13E, (E)-11-(5-Carboxypentylidene)-6-methoxy-11H-pyrido[4,3-c][2]benzazepin], the “Acute Toxicity (MLD) ip” value in series [1] (setting [5]) is greater than 100 mg/kg. In series [1] (mouse, in vivo, 10080 min), the “Acute Toxicity (MLD) po” value is on record as greater than 300 mg/kg. Further, the entries for the “Number of Obstruction Case/Number of Experiments” value in series [2] (1.0 mg/kg i.v.) and in series [2] (3.0 mg/kg i.v.) were 3/4 and 1/5, respectively. For the same molecule, the “Percent Obstruction” value amounted to 75% in series [2] (1.0 mg/kg i.v.) and 20% in series [2] (3.0 mg/kg i.v.). Further, the “percent obstruction vs control (in words)” value in series [2] (i.v.) is “significantly lower than that of the control group”. Also, in series [3], the “ECG changes vs control (in words)” value is given as “significantly smaller than those in the control groups”. Moreover, the “Change of ECG (score 0-3)” value in series [3] (setting [6]) was 0 ± 0; in series [3] (1 min after collagen injection), 0.2 ± 0.2; in series [3] (2 min after collagen injection), 0.2 ± 0.2; in series [3] (3 min after collagen injection) it was 0.2 ± 0.2; in series [3] (4 min after collagen injection) it was 0.6 ± 0.4; in series [3] (5 min after collagen injection), 0.2 ± 0.2. In addition, the “Change of ECG (score 0-3)” value came to 0.4 ± 0.2 in series [3] (6 min after collagen injection); 0.4 ± 0.2 in series [3] (7 min after collagen injection); 0.4 ± 0.2 in series [3] (8 min after collagen injection); 0.4 ± 0.2 in series [3] (9 min after collagen injection); 0.2 ± 0.2 in series [3] (setting [7]). Besides, half-maximal inhibition in series [4] (IC50) was put at 8.4 nM.
As for `O=C(O)CCCC/C=C1\c2ccccc2NC(=O)c2cnccc21` [Compound I-19Z, (Z)-5-(5-carboxypentylidene)-5,11-dihydropyrido[3,4-c][1]benzazepin-11(10H)-one], in series [1] (setting [5]), the “Acute Toxicity (MLD) ip” value is on record as greater than 100 mg/kg and the “Acute Toxicity (MLD) po” value is given as greater than 300 mg/kg. The inhibition at 10 µM in series [4] worked out at 8%.
For the molecule `CN1C(=O)c2cnccc2/C(=C\CCCCC(=O)O)c2ccccc21` [Compound I-20E, (E)-5-(5-Carboxypentylidene)-10-methyl-5,11-dihydropyrido[3,4-c][1]benzazepin-11(10H)-one], in series [1] (setting [5]), the “Acute Toxicity (MLD) ip” value is recorded as greater than 100 mg/kg and the “Acute Toxicity (MLD) po” value is greater than 300 mg/kg. In series [4], the inhibition at 10 µM amounted to 10%.
Taken in the same sequence, the figures for `CN1C(=O)c2cnccc2/C(=C/CCCCC(=O)O)c2ccccc21` [Compound I-20Z, (Z)-5-(5-carboxypentylidene)-10-methyl-5,11-dihydropyrido[3,4-c][1]benzazepin-11(10H)-one] were greater than 100 mg/kg, greater than 300 mg/kg and -23%.
Consider `O=C(O)CCCCCC1c2ccccc2NC(=O)c2cnccc21` (stereo not drawn) [Compound I-21, 5-(5-Carboxypentyl)-5,11-dihydropyrido[3,4-c][1]benzazepin-11(10H)-one], for which, in series [1] (setting [5]), the “Acute Toxicity (MLD) ip” value was greater than 100 mg/kg and the “Acute Toxicity (MLD) po” value is greater than 300 mg/kg. For the same molecule, the inhibition at 10 µM in series [4] is 47%.
Turning to `CSC1Nc2ccccc2C(=CCCCCC(=O)O)c2ccncc21` (stereo not drawn) [Compound I-22, 5-(5-Carboxypentylidene)-11-thiomethyl-5H-10,11-dihydropyrido[3,4-c][1]benzazepin], in series [1] (setting [5]), the “Acute Toxicity (MLD) ip” value is on record as greater than 100 mg/kg and the “Acute Toxicity (MLD) po” value is recorded as greater than 300 mg/kg. Besides, the inhibition at 10 µM in series [4] turned out to be 27%.
Consider `O=C(O)CCCCC=C1c2ccncc2CNc2ccccc21` [Compound I-23, 5-(5-carboxypentylidene)-5H-10,11-dihydropyrido[3,4-c][1]benzazepin], for which, in series [1] (setting [5]), the “Acute Toxicity (MLD) ip” value is greater than 100 mg/kg and the “Acute Toxicity (MLD) po” value is greater than 300 mg/kg. Further, the inhibition at 10 µM in series [4] turned out to be 27%.
